Laboratory results published in patent US20130203718A1 (priority 2010, published 2013).
“Also recorded” adds a separate entry of the source.

How the values were obtained:
hMR = target: T1, hMR (Homo sapiens, UniProt P08235); experiment: APRn selectivity: transactivation in HEK293T cells transiently expressing hMR; format: cell-based; conditions: mean±SEM
T1 construct: expressed in transfected cells; host or cells: HEK 293T
T1 sequence (P08235 1-984): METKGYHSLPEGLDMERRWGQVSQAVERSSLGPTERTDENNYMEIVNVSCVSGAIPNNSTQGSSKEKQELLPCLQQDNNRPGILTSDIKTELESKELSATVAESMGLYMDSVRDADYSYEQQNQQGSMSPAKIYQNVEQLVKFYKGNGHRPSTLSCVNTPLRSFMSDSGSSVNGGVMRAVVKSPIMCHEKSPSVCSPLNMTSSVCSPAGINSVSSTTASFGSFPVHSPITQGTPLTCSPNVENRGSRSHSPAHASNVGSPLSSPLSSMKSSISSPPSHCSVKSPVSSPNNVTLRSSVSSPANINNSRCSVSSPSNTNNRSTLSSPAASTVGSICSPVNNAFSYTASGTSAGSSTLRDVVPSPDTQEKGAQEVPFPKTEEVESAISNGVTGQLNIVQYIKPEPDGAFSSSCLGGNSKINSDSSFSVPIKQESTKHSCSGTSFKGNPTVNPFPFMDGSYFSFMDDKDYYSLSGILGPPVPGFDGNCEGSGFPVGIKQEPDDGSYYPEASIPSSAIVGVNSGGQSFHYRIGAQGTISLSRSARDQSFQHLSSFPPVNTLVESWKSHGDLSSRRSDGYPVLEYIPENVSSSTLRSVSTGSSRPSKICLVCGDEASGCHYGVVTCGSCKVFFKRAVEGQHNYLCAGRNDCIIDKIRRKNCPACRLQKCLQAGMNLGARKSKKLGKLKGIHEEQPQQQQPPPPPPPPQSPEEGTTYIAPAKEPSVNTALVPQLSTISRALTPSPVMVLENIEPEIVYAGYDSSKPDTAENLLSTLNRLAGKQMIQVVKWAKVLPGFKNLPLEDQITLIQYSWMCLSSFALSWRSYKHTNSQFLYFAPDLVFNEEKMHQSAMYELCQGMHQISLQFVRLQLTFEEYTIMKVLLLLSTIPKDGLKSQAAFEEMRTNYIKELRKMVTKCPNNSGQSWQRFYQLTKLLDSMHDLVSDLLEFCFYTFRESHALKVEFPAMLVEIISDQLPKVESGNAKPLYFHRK
Experimental: (§1) Measurement of the APRn Selectivity in HEK 293T.
(§2) The HEK-293T cells were cultured and transfected according to the method described above for the PR transactivation assays. The expression vectors pcDNA-hAR, kindly provided by G. A. Coetzee, pchGR (Hellal-Levy, C et al. FEBS Lett 1999, 464, 9), and pchMR (Fagart, J. et al. EMBO J. 1998, 17, 3317) were used for studying the ability of APRn to activate or inactivate the AR, GR and MR, respectively. For each transfection assays, 2 μg of the expression vector was used together with 7 μg of the GRE2-Luc reporter vector. Dihydrotestosterone (DHT), dexamethasone (Dex) and Aldosterone (Aldo) were selected as AR, GR and MR ligands, respectively. They were used at the concentration of 10^−9 M. The APRn agonist and antagonist efficacy for AR, GR and MR were measured as described above for PR. The results are the mean±SEM of three independent experiments.
(§3) Transfection assays were performed in HEK 293T cells by using expression vectors for the hAR, hGR and hMR and the GRE2-Luc reporter used for the PR transactivation assays.

hGR = target: T2, hGR (Homo sapiens, UniProt P04150); experiment: APRn selectivity: transactivation in HEK293T cells transiently expressing hGR; format: cell-based; conditions: HEK293T transiently expressing hGR, mean±SEM; for GR Antagonist efficacy (%): dexamethasone 10^−9 M; for Emax: HEK-293T, read-out: GR Agonist efficacy (%)
T2 construct: expressed in transfected cells; host or cells: HEK 293T
T2 sequence (P04150 1-777): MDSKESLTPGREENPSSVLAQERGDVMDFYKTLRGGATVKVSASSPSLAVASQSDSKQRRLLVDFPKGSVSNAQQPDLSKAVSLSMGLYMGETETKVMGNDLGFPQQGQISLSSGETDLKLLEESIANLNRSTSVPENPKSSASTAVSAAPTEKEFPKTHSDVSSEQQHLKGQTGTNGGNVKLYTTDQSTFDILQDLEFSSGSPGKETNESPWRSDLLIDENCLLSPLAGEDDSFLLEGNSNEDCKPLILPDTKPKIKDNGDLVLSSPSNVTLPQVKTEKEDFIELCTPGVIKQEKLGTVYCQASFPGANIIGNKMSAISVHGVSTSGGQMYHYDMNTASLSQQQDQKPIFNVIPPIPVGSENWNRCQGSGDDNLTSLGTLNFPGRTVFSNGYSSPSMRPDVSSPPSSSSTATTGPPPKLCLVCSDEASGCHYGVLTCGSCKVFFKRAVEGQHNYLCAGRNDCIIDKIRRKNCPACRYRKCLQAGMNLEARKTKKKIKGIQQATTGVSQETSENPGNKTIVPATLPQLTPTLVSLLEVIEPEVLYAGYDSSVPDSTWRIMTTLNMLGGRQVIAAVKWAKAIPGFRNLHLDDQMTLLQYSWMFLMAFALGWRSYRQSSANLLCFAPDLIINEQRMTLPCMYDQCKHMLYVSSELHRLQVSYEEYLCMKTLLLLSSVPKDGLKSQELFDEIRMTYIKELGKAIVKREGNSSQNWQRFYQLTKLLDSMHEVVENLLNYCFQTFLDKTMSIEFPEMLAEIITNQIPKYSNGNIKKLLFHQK
Experimental: as §1, §2, §3

hPRB = target: T3, hPRB (Homo sapiens, UniProt P06401); experiment: PR transactivation assay (GRE2-Luc) in HEK293T cells transiently expressing hPRB; format: cell-based; set-up: expressed in transfected cells; host or cells: HEK 293T; conditions: APRn 1 μM
T3 sequence (P06401 1-933): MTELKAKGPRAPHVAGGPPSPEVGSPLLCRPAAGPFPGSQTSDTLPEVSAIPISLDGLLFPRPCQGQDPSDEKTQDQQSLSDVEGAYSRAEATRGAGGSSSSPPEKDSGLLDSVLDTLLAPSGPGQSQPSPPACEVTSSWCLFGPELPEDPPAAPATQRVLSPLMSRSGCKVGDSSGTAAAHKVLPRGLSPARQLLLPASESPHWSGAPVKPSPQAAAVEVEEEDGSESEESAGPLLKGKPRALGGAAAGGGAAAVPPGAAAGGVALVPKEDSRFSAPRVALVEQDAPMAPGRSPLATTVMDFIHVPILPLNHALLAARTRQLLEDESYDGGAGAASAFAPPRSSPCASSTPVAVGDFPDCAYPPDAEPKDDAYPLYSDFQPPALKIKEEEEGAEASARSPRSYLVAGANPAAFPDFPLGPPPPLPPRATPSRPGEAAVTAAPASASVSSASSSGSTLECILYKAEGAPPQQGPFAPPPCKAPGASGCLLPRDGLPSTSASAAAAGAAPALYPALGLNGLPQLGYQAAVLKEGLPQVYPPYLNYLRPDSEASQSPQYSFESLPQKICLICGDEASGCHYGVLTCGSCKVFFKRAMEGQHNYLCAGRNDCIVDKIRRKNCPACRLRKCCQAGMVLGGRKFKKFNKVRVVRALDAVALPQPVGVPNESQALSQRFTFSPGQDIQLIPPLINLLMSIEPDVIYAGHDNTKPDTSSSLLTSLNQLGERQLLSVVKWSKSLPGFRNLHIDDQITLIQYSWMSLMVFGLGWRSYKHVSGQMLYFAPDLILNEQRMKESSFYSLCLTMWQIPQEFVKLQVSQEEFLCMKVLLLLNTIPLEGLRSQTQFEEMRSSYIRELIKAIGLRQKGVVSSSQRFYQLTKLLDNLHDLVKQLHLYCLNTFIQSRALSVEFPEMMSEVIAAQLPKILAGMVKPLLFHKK
Experimental: PR Transactivation Assays in HEK 293T.
HEK 293T cells were routinely cultured in a high-glucose DMEM medium (Invitrogene, Cergy Pontoise, France), 20 mM HEPES, 2 mM glutamine, 1× non essential amino acids, 100 U/mL penicillin and 100 μg/mL streptomycin supplemented with 10% foetal calf serum (FCS) in a humidified atmosphere at 37° C. and with 5% CO2. One day before transfection, the cells were seeded at 3×10^6 cells/[…] diameter culture Petri dish and cultured overnight in the same medium. Six hours before transfection, the FCS supplemented medium was replaced by the same medium supplemented with 10% dextran-charcoal treated FCS. Transfections were carried out using the calcium phosphate precipitation method. The calcium phosphate precipitate was prepared with 0.5 μg pchPRB (Petit-Topin, et al Mol Pharmacol, 2009, 75, 1317), 7 μg reporter vector (GRE2-Luc from A. Biola-Vidamment and M. Pallardy) and 1 μg of pcβgal for an internal transfection control, in 1 mL 140 mM NaCl, 0.75 mM Na2HPO4, 25 mM HEPES, 125 mM CaCl2 pH 7.05 and added to the cells 30 minutes later. After 16 h incubation, the transfected cells were washed with PBS containing 2.5 mM EDTA, trypsinized and pooled. The transfected cells were replated in 24-well plates (100.000 transfected cells/well). […] Cells were lysed in 300 μl PBS 1×, 25 mM glycylglycine, 4 mM EDTA, 15% glycerol, 1% triton X-100, 15 mM MgSO4, pH 7.8 supplemented with 2 mM β-mercaptoethanol. The luciferase activities were quantified by using a Mithras LB940 reader microplates (Berthold).
The APRn “agonist efficacy” was determined from the following formula:
Agonist efficacy=[luciferase activity]1/[luciferase activity]2×100
The APRn “antagonist efficacy” was calculated from the following formula:
Antagonist efficacy=100−[luciferase activity]1/[luciferase activity]2×100
The results are the mean±SEM of three to five independent experiments.
All the synthesized APRn were classified in 4 series depending on the nature of their C3 substituent (R1/R′1 groups). The first one (series 1) includes APRn with no C3 substituent (R1═R′1═H) whereas series 2, 3 and 4 are related to APRn bearing a methoxyl (R1═OMe), a hydroxyl (R1═OH) and a fluorine atom (R1═F), respectively. The agonist/antagonist activities of APRn were determined either in human HEK293T cells transiently expressing hPRB or in human MDA-MB-231 iPRAB cells conditionally expressing hPRB, by using a luciferase reporter gene placed under the control of a glucocorticoid response element (GRE2-Luc). The APRn “agonist efficacy” was determined from the luciferase activity measured in the presence of APRn (1 μM). […] The “agonist efficacy” and “antagonist efficacy” are expressed as defined in the biological protocols section.

[1] = series 2-4, stated for both HEK293T and MDA-MB-231 iPRAB cells, FIGS. 3-8

In the case of `C[C@]12CC[C@H](F)C[C@@H]1CC[C@@H]1[C@@H]2CC[C@]2(C)[C@@H](O)CC[C@@H]12` [APR-40, 3β-Fluoro-5α-androstan-17β-ol], the melting point is reported as 150 to 151 °C, the “MR Antagonist efficacy (%)” value (hMR; aldosterone 10^−9 M) is reported as 0.4 ± 2.6% and the “MR Agonist efficacy (%)” value (hMR) is reported as 0.57 ± 0.05%. For the same molecule, the “GR Antagonist efficacy (%)” value (hGR) was 5.5 ± 3.9% and the Emax (hGR) was 0.3 ± 0.06%.
In the case of `CO[C@H]1CC[C@@]2(C)[C@@H](CC[C@@H]3[C@@H]2CC[C@]2(C)[C@@H](C(C)=O)CC[C@@H]32)C1` [APR-22, 3β-Methoxy-5α-pregnan-20-one], the melting point is reported as 125 to 126 °C and the “hPRB agonist/antagonist character (in words)” value (hPRB; [1]) is reported as “antagonist character without any agonist activity; also recorded: most potent molecules”.
In the case of `C[C@]12CC[C@H](F)CC1=CC[C@@H]1[C@@H]2CC[C@]2(C)C(=O)CC[C@@H]12` [APR-33, 3β-Fluoroandrost-5-en-17-one], the melting point is reported as 155 to 156 °C and the “hPRB agonist/antagonist character (in words)” value (hPRB; [1]) is reported as “efficient hPRB antagonists”.
In the case of `C[C@]12CCCC[C@@H]1CC[C@@H]1[C@@H]2CC[C@]2(C)C(=O)CC[C@@H]12` [APR-23, 5α-Androstan-17-one], the melting point is reported as 120 to 121 °C and the “hPRB agonist/antagonist character (in words)” value (hPRB; series 1 (no C3 substituent), HEK293T, FIG. 1) is reported as “full antagonists”.
With `CC1CCC2C3CCC4=CC(O)CC[C@]4(C)C3CC[C@]2(C)[C@H]1F` (single isomer, unassigned) [APR-07, 17aβ-Fluoro-17α-methyl-D-homo-pregn-4-en-3-ol] the melting point was 125 to 126 °C and the “hPRB agonist/antagonist character (in words)” value (hPRB; [1]) was “most potent hPRB antagonist in this series”.
With `CO[C@H]1CC[C@@]2(C)C(=CC[C@H]3[C@@H]4CC[C@H](C(C)O)[C@@]4(C)CC[C@@H]32)C1` (mixture of isomers) [APR-27, 3β-Methoxypregn-5-en-20-ol] the melting point was 124 to 125 °C and the “hPRB agonist/antagonist character (in words)” value (hPRB; [1]) was “antagonist character without any agonist activity”.
For `C#C[C@]1(O)CCC2C3CC=C4C[C@@H](F)CC[C@@H]4C3CC[C@@]21C` (stereo partly drawn) [APR-50, 17α-Ethynyl-3β-fluoro-19-nor-androst-5-en-17β-ol], the melting point was 149 to 150 °C, the “GR Antagonist efficacy (%)” value (hGR) was 7.4 ± 1.9% and the Emax (hGR) was 0.25 ± 0.1%.
With `C#C[C@]1(O)CCC2C3CC=C4C[C@@H](F)CC[C@]4(C)C3CC[C@@]21C` (stereo partly drawn) [APR-34, 17α-Ethynyl-3β-fluoro-androst-5-en-17β-ol] the melting point was 219 to 220 °C and the “hPRB agonist/antagonist character (in words)” value (hPRB; [1]) was “efficient hPRB antagonists”.
With `C[C@]12CC[C@H](F)C[C@@H]1CC[C@@H]1[C@@H]2CC[C@]2(C)C(=O)CC[C@@H]12` [APR-35, 3β-Fluoro-5α-androstan-17-one] the melting point was 126 to 127 °C and the “hPRB agonist/antagonist character (in words)” value (hPRB; [1]) was “efficient hPRB antagonists”.
